In the NIST ThermoML archive (doi:10.1021/je0340248):
Numbers after ± are expanded uncertainties.

What was measured:
[1] = 101.33 kPa, Liquid
[2] = xn = mol fraction of the nth substance listed; settings: 101 kPa, Liquid

OCCO [1,2-ethanediol]
[1]
Settings | mass density [kg/m3] | speed of sound [m/s] | viscosity [mPa·s]
298.15 K | – | 1662 ± 2 | 14.82 ± 0.19
303.15 K | 1106.63 ± 0.3 | – | –
308.15 K | – | 1635 ± 2 | 10.48 ± 0.15
313.15 K | 1099.64 ± 0.29 | – | –

CC(O)CO (stereo not drawn) [1,2-propanediol]
[1]
Settings | mass density [kg/m3] | speed of sound [m/s] | viscosity [mPa·s]
298.15 K | 1032.75 ± 0.32 | 1492 ± 2 | 43.43 ± 0.6
303.15 K | 1029.02 ± 0.33 | – | –
308.15 K | 1025.4 ± 0.34 | 1454 ± 2 | 24.24 ± 0.47
313.15 K | 1021.53 ± 0.35 | – | –

CC(=O)OCCC(C)C [3-methylbutyl ethanoate]
[1]
Settings | mass density [kg/m3] | speed of sound [m/s] | viscosity [mPa·s]
298.15 K | 866.21 ± 0.97 | 1195 ± 2 | 0.781 ± 0.013
303.15 K | 861.05 ± 0.99 | – | –
308.15 K | 855.85 ± 1 | 1154 ± 2 | 0.747 ± 0.013
313.15 K | 852.95 ± 1 | – | –

OCCOCCO [diethylene glycol] + COC(C)=O
[2]
Settings | mass density, 298.15 K [kg/m3] | mass density, 303.15 K [kg/m3] | mass density, 308.15 K [kg/m3] | mass density, 313.15 K [kg/m3] | speed of sound, 298.15 K [m/s] | speed of sound, 308.15 K [m/s] | viscosity, 298.15 K [mPa·s] | viscosity, 308.15 K [mPa·s]
x2 = 0.0406 | 1107.83 ± 0.31 | 1103.83 ± 0.31 | 1100.41 ± 0.3 | 1097.07 ± 0.3 | 1562 ± 2 | 1533 ± 2 | 26.42 ± 0.38 | 14.2 ± 0.3
x2 = 0.1512 | 1091.77 ± 0.32 | 1087.47 ± 0.32 | 1083.89 ± 0.32 | 1080.13 ± 0.32 | 1513 ± 2 | 1485 ± 2 | 18.27 ± 0.29 | 8.812 ± 0.21
x2 = 0.2516 | 1076.55 ± 0.34 | 1071.84 ± 0.34 | 1068.15 ± 0.34 | 1063.99 ± 0.35 | 1472 ± 2 | 1441 ± 2 | 12.72 ± 0.21 | 5.78 ± 0.15
x2 = 0.3488 | 1061.26 ± 0.37 | 1056.15 ± 0.38 | 1052.35 ± 0.38 | 1047.79 ± 0.38 | 1431 ± 2 | 1398 ± 2 | 8.747 ± 0.15 | 3.883 ± 0.11
x2 = 0.44 | 1046.36 ± 0.41 | 1040.88 ± 0.42 | 1036.96 ± 0.42 | 1032.05 ± 0.43 | 1392 ± 2 | 1357 ± 2 | 6.023 ± 0.11 | 2.698 ± 0.077
x2 = 0.4926 | 1037.46 ± 0.44 | 1031.79 ± 0.44 | 1027.79 ± 0.45 | 1022.69 ± 0.46 | 1370 ± 2 | 1334 ± 2 | 4.811 ± 0.089 | 2.196 ± 0.062
x2 = 0.5504 | 1027.35 ± 0.46 | 1021.49 ± 0.47 | 1017.4 ± 0.48 | 1012.1 ± 0.49 | 1345 ± 2 | 1308 ± 2 | 3.728 ± 0.069 | 1.757 ± 0.047
x2 = 0.6509 | 1008.76 ± 0.51 | 1002.63 ± 0.53 | 998.36 ± 0.53 | 992.71 ± 0.55 | 1301 ± 2 | 1260 ± 2 | 2.345 ± 0.044 | 1.203 ± 0.029
x2 = 0.751 | 988.53 ± 0.57 | 982.17 ± 0.59 | 977.74 ± 0.6 | 971.76 ± 0.62 | 1258 ± 2 | 1213 ± 2 | 1.44 ± 0.027 | 0.834 ± 0.018
x2 = 0.8504 | 966.18 ± 0.64 | 959.59 ± 0.66 | 955.04 ± 0.67 | 948.73 ± 0.69 | 1214 ± 2 | 1168 ± 2 | 0.866 ± 0.016 | 0.586 ± 0.012
x2 = 0.9429 | 942.76 ± 0.72 | 935.89 ± 0.74 | 931.35 ± 0.75 | 924.7 ± 0.77 | 1174 ± 2 | 1127 ± 2 | 0.527 ± 0.01 | 0.426 ± 0.008

COC(C)=O [methyl ethanoate] + OCCO
[2]
Settings | mass density, 298.15 K [kg/m3] | mass density, 303.15 K [kg/m3] | mass density, 308.15 K [kg/m3] | mass density, 313.15 K [kg/m3] | speed of sound, 298.15 K [m/s] | speed of sound, 308.15 K [m/s] | viscosity, 298.15 K [mPa·s] | viscosity, 308.15 K [mPa·s]
x1 = 0.0444 | 1100.26 ± 0.3 | 1096.48 ± 0.3 | 1092.85 ± 0.29 | 1089.11 ± 0.29 | 1627 ± 2 | 1600 ± 2 | 11.86 ± 0.16 | 8.678 ± 0.13
x1 = 0.1488 | 1077.91 ± 0.32 | 1073.64 ± 0.31 | 1070.12 ± 0.31 | 1065.97 ± 0.32 | 1550 ± 2 | 1521 ± 2 | 7.177 ± 0.1 | 5.649 ± 0.082
x1 = 0.2505 | 1056.96 ± 0.35 | 1052.6 ± 0.35 | 1049.33 ± 0.36 | 1045.05 ± 0.36 | 1482 ± 2 | 1452 ± 2 | 4.535 ± 0.069 | 3.788 ± 0.056
x1 = 0.3485 | 1037.61 ± 0.4 | 1033.23 ± 0.4 | 1030.22 ± 0.41 | 1025.91 ± 0.42 | 1424 ± 2 | 1391 ± 2 | 2.996 ± 0.046 | 2.623 ± 0.04
x1 = 0.4411 | 1020.06 ± 0.45 | 1015.63 ± 0.46 | 1012.78 ± 0.46 | 1008.44 ± 0.47 | 1374 ± 2 | 1338 ± 2 | 2.078 ± 0.032 | 1.882 ± 0.029
x1 = 0.4856 | 1011.89 ± 0.48 | 1007.39 ± 0.49 | 1004.56 ± 0.49 | 1000.19 ± 0.5 | 1351 ± 2 | 1315 ± 2 | 1.758 ± 0.028 | 1.614 ± 0.025
x1 = 0.5507 | 1000.2 ± 0.51 | 995.55 ± 0.52 | 992.71 ± 0.53 | 988.26 ± 0.54 | 1320 ± 2 | 1282 ± 2 | 1.39 ± 0.022 | 1.296 ± 0.021
x1 = 0.6503 | 982.94 ± 0.57 | 977.9 ± 0.58 | 974.92 ± 0.59 | 970.21 ± 0.6 | 1276 ± 2 | 1237 ± 2 | 0.994 ± 0.017 | 0.941 ± 0.016
x1 = 0.7489 | 966.49 ± 0.63 | 960.93 ± 0.64 | 957.65 ± 0.65 | 952.55 ± 0.67 | 1237 ± 2 | 1196 ± 2 | 0.734 ± 0.013 | 0.697 ± 0.012
x1 = 0.8498 | 950.22 ± 0.69 | 944.03 ± 0.7 | 940.33 ± 0.71 | 934.64 ± 0.73 | 1199 ± 2 | 1157 ± 2 | 0.554 ± 0.01 | 0.522 ± 0.01
x1 = 0.9453 | 935.24 ± 0.74 | 928.45 ± 0.76 | 924.26 ± 0.77 | 917.85 ± 0.79 | 1167 ± 2 | 1122 ± 2 | 0.435 ± 0.008 | 0.404 ± 0.008
